Measurements taken from patent US12679878B2, “CRF2 receptor agonists and their use in therapy” (SANOFI, priority 2020, dated 2026).
≈ marks a conversion by molar mass, not a printed value. Starred links: 1 amine or outer side, 2 acyl side, 3 side chain; linkers in the order of their positions; H or OH if unused. Non-standard residues stand in square brackets, D forms with d. Residues, ends and D or L forms follow the SMILES beside them. Groups on a side chain read outwards from the residue. *: point of attachment. C18 diacid = O=C(O)CCCCCCCCCCCCCCCCC(=O)*; γGlu = O=C(O)[C@H](CCC(=O)[*:2])N[*:1]; AEEA = NCCOCCOCC(=O)O; Aib = CC(C)(N)C(=O)O

What was measured:
[1] = Chemical stability, purity loss by UPLC-UV after 28 days at 40° C. vs 5° C., pH 4.5 acetate buffer (Example 12); format: physicochemical; conditions: 28 days 40° C. vs 5° C.; pH 4.5, 20 mM acetate buffer; 300 μM
Procedure, shortened: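 300 μM compound (purity-corrected) in 20 mM acetate buffer, pH 4.5, stored 28 days at 5 and 40° C. Purity by UPLC-UV as compound peak area over total peak area. Value is the purity difference between 5° C. and 40° C. samples, relative to the 5° C. purity, in percent.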

[2] = Solubility in buffer systems by UPLC-UV (Example 13); format: physicochemical
Procedure, shortened: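 The supernatant was diluted 1:10 and quantified by UPLC-UV peak area against a reference standard curve, correcting for sequence-based extinction coefficients.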

[3] = Physical stability, dynamic light scattering assay (Example 15); format: physicochemical; conditions: for Apparent Rh [nm] 4 weeks / Scattering Intensity (I) [%] 4 weeks: 4 weeks at 40° C.
Procedure, shortened: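 DLS at 837 nm, 150° angle, +25° C; Rh, scattering intensity and mass contribution measured at 0 weeks and after 4 weeks at 40° C. Rh and D compared at 1, 5 and 10 mg/ml as kD surrogate; separate measurements at 300 μM, purity-corrected.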

rat CRF2R α receptor = test: cAMP agonism at rat CRF2R α receptor in A7R5 rat aortic smooth muscle cells (Example 8); format: cell-based; conditions: cAMP HTRF, A7R5 rat aortic smooth muscle cell line, 0% HSA
Procedure, shortened: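 Thawed cryopreserved A7R5 cells in HBSS/20 mM HEPES (0 or 0.1% HSA) with 2 mM IBMX, 2000 cells/well, were exposed to compound for 30 min at room temperature. cAMP was read by HTRF (665/620 nm ratio) after 1 h with lysis reagents. Activity was normalised to 1000 nM urocortin 2 as 100%, and EC50 was taken as the concentration giving 50% of maximal activation.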

[4] = pH 4.5, Solubility in Buffer A [mg/ml]
[5] = pH 4.5, Solubility in Buffer B [mg/ml]
[6] = pH 7.4, Solubility in Buffer C [mg/ml]
[7] = Buffer A (100 mM acetate, pH 4.5)
[8] = Buffer D (20 mM phosphate, pH 7.4)
[9] = Buffer B (100 mM acetate, pH 4.5, 2.7 mg/ml m-cresol)
[10] = Buffer E (20 mM acetate, pH 4.5)

Relative purity loss [%] [1] | solubility at 1 h [2, 4] | solubility at 1 h [2, 5] | solubility at 1 h [2, 6] | Apparent Rh [nm] 0 weeks [3, 7] | Scattering Intensity (I) [%] 0 weeks [3, 7] | Apparent Rh [nm] 4 weeks [3, 7] | Scattering Intensity (I) [%] 4 weeks [3, 7] | Apparent Rh [nm] 0 weeks [3, 8] | Scattering Intensity (I) [%] 0 weeks [3, 8] | Apparent Rh [nm] 4 weeks [3, 8] | Scattering Intensity (I) [%] 4 weeks [3, 8] | EC50 (rat CRF2R α receptor) | Apparent Rh [nm] 0 weeks [3, 9] | Scattering Intensity (I) [%] 0 weeks [3, 9] | Apparent Rh [nm] 4 weeks [3, 9] | Scattering Intensity (I) [%] 4 weeks [3, 9] | SMILES | also measured
3.10% | > 8400 µg/mL | > 8600 µg/mL | 7800 µg/mL (≈ 1510 µM) | 2.75 ± 0.14 nm | 98 ± 3% | 2.70 ± 0.28 nm | 97 ± 2% | 2.40 ± 0.15 nm | 98 ± 3% | 2.48 ± 0.07 nm | 98 ± 2% | 0.38 nM |  |  |  |  | CC[C@H](C)[C@H](N)C(=O)N[C@H](C(=O)N[C@@H](CC(C)C)C(=O)N[C@@H](CO)C(=O)N[C@@H](CC(C)C)C(=O)N[C@@H](CC(=O)O)C(=O)N[C@@H](C(=O)N1CCC[C@H]1C(=O)N[C@H](C(=O)N[C@@H](CCCCN)C(=O)N[C@@H](CC(C)C)C(=O)N[C@@H](CCCCNC(=O)COCCOCCNC(=O)COCCOCCNC(=O)CC[C@H](NC(=O)CCCCCCCCCCCCCCCCC(=O)O)C(=O)O)C(=O)N[C@@H](CCC(N)=O)C(=O)N[C@H](C(=O)N[C@@H](CC(C)C)C(=O)N[C@@H](CC(C)C)C(=O)N[C@@H](CCCCN)C(=O)N[C@@H](CCC(N)=O)C(=O)N[C@@H](CCC(=O)O)C(=O)N[C@@H](CCCNC(=N)N)C(=O)N[C@@H](CCC(N)=O)C(=O)N[C@@H](CCCCN)C(=O)N[C@@H](CCCCN)C(=O)NC(C)(C)C(=O)N[C@@H](CCCNC(=N)N)C(=O)N[C@@H](CCC(N)=O)C(=O)N[C@@H](CCCCN)C(=O)N[C@@H](C)C(=O)N[C@@H](CCC(=O)O)C(=O)N[C@@H](CCCCN)C(=O)N[C@@H](CC(N)=O)C(=O)N[C@@H](CCCCN)C(=O)N[C@@H](CCC(N)=O)C(=O)N[C@H](C(=O)N[C@@H](CC(C)C)C(=O)N[C@@H](C)C(=O)N[C@@H](CCC(N)=O)C(=O)N[C@H](C(N)=O)C(C)C)[C@@H](C)CC)[C@@H](C)CC)[C@@H](C)CC)C(C)C)C(C)C [compound 136] (H-IVLSLD[dV]PIKLK([AEEA-AEEA-γGlu-C18 diacid])QILLKQERQKK[Aib]RQKAEKNKQILAQV-NH2; N-terminus assumed) | 
4.80% | > 8600 µg/mL | > 8400 µg/mL | > 8700 µg/mL | 3.31 ± 0.15 nm | 94 ± 1% | 3.34 ± 0.25 nm | 100 ± 0% | 2.66 ± 0.13 nm | 84 ± 6% | 2.65 ± 0.11 nm | 88 ± 9% | 0.14 nM | 3.50 ± 0.03 nm | 100 ± 0% | 3.60 ± 0.10 nm | 100 ± 0% | CC[C@H](C)[C@H](N)C(=O)N[C@H](C(=O)N[C@@H](CC(C)C)C(=O)N[C@@H](CO)C(=O)N[C@@H](CC(C)C)C(=O)N[C@@H](CC(=O)O)C(=O)N[C@@H](C(=O)N1CCC[C@H]1C(=O)N[C@H](C(=O)N[C@@H](CCCCN)C(=O)N[C@@H](CC(C)C)C(=O)N[C@@H](CCCCNC(=O)COCCOCCNC(=O)COCCOCCNC(=O)CC[C@H](NC(=O)CCCCCCCCCCCCCCCCC(=O)O)C(=O)O)C(=O)N[C@@H](CCC(N)=O)C(=O)N[C@H](C(=O)N[C@@H](CC(C)C)C(=O)N[C@@H](CC(C)C)C(=O)N[C@@H](CCCCN)C(=O)N[C@@H](CCC(N)=O)C(=O)N[C@@H](CCC(=O)O)C(=O)N[C@@H](CCCNC(=N)N)C(=O)N[C@@H](CCC(N)=O)C(=O)N[C@@H](CCCCN)C(=O)N[C@@H](CCCCN)C(=O)N[C@@H](CCC(N)=O)C(=O)N[C@@H](CCCNC(=N)N)C(=O)N[C@@H](CCC(=O)O)C(=O)N[C@@H](CCC(N)=O)C(=O)N[C@@H](C)C(=O)N[C@@H](CCC(=O)O)C(=O)N[C@@H](CCCCN)C(=O)N[C@@H](CC(N)=O)C(=O)N[C@@H](CCCCN)C(=O)N[C@@H](CCC(N)=O)C(=O)N[C@H](C(=O)N[C@@H](CC(C)C)C(=O)N[C@@H](CCC(=O)O)C(=O)N[C@@H](CCC(N)=O)C(=O)N[C@H](C(N)=O)C(C)C)[C@@H](C)CC)[C@@H](C)CC)[C@@H](C)CC)C(C)C)C(C)C [compound 137] (H-IVLSLD[dV]PIKLK([AEEA-AEEA-γGlu-C18 diacid])QILLKQERQKKQREQAEKNKQILEQV-NH2; N-terminus assumed) | Apparent Rh [nm] 0 weeks [3, 10]: 2.38 ± 0.13 nm; Scattering Intensity (I) [%] 0 weeks [3, 10]: 98 ± 2%; Apparent Rh [nm] 4 weeks [3, 10]: 2.59 ± 0.07 nm; Scattering Intensity (I) [%] 4 weeks [3, 10]: 100 ± 0%
3.05% | > 9100 µg/mL | > 8600 µg/mL | > 8800 µg/mL | 3.04 ± 0.08 nm | 98 ± 1% | 3.13 ± 0.22 nm | 95 ± 4% | 2.38 ± 0.23 nm | 96 ± 3% | 2.56 ± 0.29 nm | 100 ± 0% | 0.1 nM | 2.94 ± 0.32 nm | 96 ± 5% | 3.11 ± 0.14 nm | 93 ± 3% | CC[C@H](C)[C@H](N)C(=O)N[C@H](C(=O)N[C@@H](CC(C)C)C(=O)N[C@@H](CO)C(=O)N[C@@H](CC(C)C)C(=O)N[C@@H](CC(=O)O)C(=O)N[C@@H](C(=O)N1CCC[C@H]1C(=O)N[C@H](C(=O)N[C@@H](CCCCN)C(=O)N[C@@H](CC(C)C)C(=O)N[C@@H](CCCCNC(=O)COCCOCCNC(=O)COCCOCCNC(=O)CC[C@H](NC(=O)CCCCCCCCCCCCCCCCC(=O)O)C(=O)O)C(=O)N[C@@H](CCC(N)=O)C(=O)N[C@H](C(=O)N[C@@H](CC(C)C)C(=O)N[C@@H](CC(C)C)C(=O)N[C@@H](CCCCN)C(=O)N[C@@H](CCC(N)=O)C(=O)N[C@@H](CCC(=O)O)C(=O)N[C@@H](CCCNC(=N)N)C(=O)N[C@@H](CCC(N)=O)C(=O)N[C@@H](CCCCN)C(=O)N[C@@H](CCCCN)C(=O)N[C@@H](CCC(N)=O)C(=O)N[C@@H](CCCNC(=N)N)C(=O)N[C@@H](CCC(N)=O)C(=O)N[C@@H](CCC(N)=O)C(=O)N[C@@H](C)C(=O)N[C@@H](CCC(=O)O)C(=O)N[C@@H](CCCCN)C(=O)N[C@@H](CC(N)=O)C(=O)N[C@@H](CCCCN)C(=O)N[C@@H](CCC(N)=O)C(=O)N[C@H](C(=O)N[C@@H](CC(C)C)C(=O)N[C@@H](C)C(=O)N[C@@H](CCC(N)=O)C(=O)N[C@H](C(N)=O)C(C)C)[C@@H](C)CC)[C@@H](C)CC)[C@@H](C)CC)C(C)C)C(C)C [compound 139] (H-IVLSLD[dV]PIKLK([AEEA-AEEA-γGlu-C18 diacid])QILLKQERQKKQRQQAEKNKQILAQV-NH2; N-terminus assumed) | 
